Assay results taken from patent US20240024273A1, “TOPICAL ADMINISTRATION OF 2-(DIETHYLAMINO)ETHYL 2-(4-ISOBUTYLPHENYL)PROPRIONATE FOR TREATMENT OF DISEASES” (TECHFIELDS PHARMA CO., LTD., priority 2020, published 2024).

Columns and labels:
Assay type in all cases: in vivo, human
[1] = test system: osteoarthritis of the knee; experiment: Second Phase 2 study: Investigator's assessment of response to therapy (IART); conditions: Week 12
Description: 4.9.3. Exploratory Efficacy Endpoints: • 1. Investigator's global assessment of response to therapy of the target knee at 2, 4, 8, and 12 weeks of treatment; • 2. Change from Baseline over time in overall WOMAC (VAS) score for the target knee after the treatment is stopped for 2 weeks.

[2] = test system: osteoarthritis of the knee; experiment: Second Phase 2 study: WOMAC difficulty performing daily activities (functional ability) subscale score
Description: (§1) This is a Phase 2, multicenter, randomized, double blind (within dose), Ibuprofen-placebo controlled, parallel group, dose range finding study to evaluate the efficacy, safety, and PK of 2-(diethylamino)ethyl 2-(4-isobutylphenyl)propionate spray in adult subjects with clinically symptomatic OA of the knee. For subjects with bilateral knee pain, both knees will be treated, but the most symptomatic knee (ie, the most painful knee as measured by the Western Ontario and McMaster University Osteoarthritis Index [WOMAC® 3.1] pain subscale score at Screening) will be designated as the target knee for efficacy analyses. For subjects with unilateral knee pain, only the symptomatic (target) knee will be treated.
(§2) The VAS version of the WOMAC will be used for the Primary and Secondary Efficacy Endpoints. Efficacy endpoints will be assessed at Screening and Baseline (Day 1) and at the Week 2, Week 4, Week 8, and Week 12/EOS visits.
(§3) 4.9.2. Secondary Efficacy Endpoints: • 1. Change from Baseline in the WOMAC (VAS) pain subscale score for the target knee at 2, 8, and 12 weeks of treatment; • 2. Change from Baseline in the WOMAC (VAS) stiffness subscale scores for the target knee and WOMAC (VAS) functional ability subscale scores at 2, 4, 8, and 12 weeks of treatment; • 3. Change from Baseline in the overall WOMAC (VAS) score at 2, 4, 8, and 12 weeks of treatment; • 4. Subject's global assessment of disease status of the target knee at 2, 4, 8, and 12 weeks of treatment; • 5. Subject's global assessment of response to therapy of the target knee at 2, 4, 8, and 12 weeks of treatment; • 6. Amount of rescue medication (acetaminophen) consumed per day for target knee pain.
(§4) The Secondary Efficacy Endpoints, change from Baseline in the WOMAC subscale scores for pain, stiffness, and functional ability, and overall WOMAC score at 2, 4, 8, and 12 weeks of treatment, will be analyzed using the same methods as for the Primary Efficacy Endpoint.

[3] = test system: osteoarthritis of the knee; experiment: Second Phase 2 study: WOMAC overall score
Description: as §1, §2, §3, §4

[4] = oral, 3 x 400 mg (n = 20), first 130 subjects
[5] = all subjects, Oral Ibuprofen 3 × 400 mg, n = 48
[6] = Baseline, oral, 3 × 400 mg (n = 20), first 130 subjects
[7] = Week 12, oral, 3 × 400 mg (n = 20), first 130 subjects
[8] = all subjects, Oral Ibuprofen 3 × 400 mg, n = 48, Week 12
[9] = all subjects, Oral Ibuprofen 3 × 400 mg, n = 48 vs. Placebo n = 48
[10] = oral 3×400 mg, first 130 subjects

CC(C)Cc1ccc(C(C)C(=O)O)cc1 (stereo not drawn) [Ibuprofen, 2-(4-isobutylphenyl)propionic acid, reference compound]
IART: Good and Very good [1, 4]: 50.0%
IART: Poor and Very Poor [1, 4]: 25.0%
IART: fair [1, 4]: 25.0%
IART, Good and Very good [1, 5]: 47.9%
IART, Poor and Very Poor [1, 5]: 8.3%
IART, fair [1, 5]: 43.8%
WOMAC Difficulty Performing Daily Activities Subscale Scores, Baseline (LS Mean) [2, 6]: 65.5 mm
WOMAC Difficulty Performing Daily Activities Subscale Scores, % of improvement from Placebo [2, 7]: −3.3%
WOMAC Difficulty Performing Daily Activities Subscale Scores, % of improvement from baseline [2, 7]: −33.0%
WOMAC Difficulty Performing Daily Activities Subscale Scores, Changes from Baseline (LS Mean) [2, 7]: −21.6 mm
WOMAC Difficulty Performing Daily Activities Subscale Scores, Different from placebo (LS Mean) [2, 7]: −3.5 mm
WOMAC Difficulty Performing Daily Activities Subscale Scores, Week 12 (LS Mean) [2, 7]: 43.9 mm
WOMAC Difficulty Performing Daily Activities Subscale Scores, % of improvement from Placebo [2, 8]: −4.3%
WOMAC Difficulty Performing Daily Activities Subscale Scores, % of improvement from baseline [2, 8]: −41.5%
WOMAC Difficulty Performing Daily Activities Subscale Scores, Changes from Baseline (LS Mean) [2, 8]: −25.3 mm
WOMAC Difficulty Performing Daily Activities Subscale Scores, Week 12 (LS Mean) [2, 8]: 35.7 mm
WOMAC Functional Ability, difference vs. Placebo [2, 9]: −3.4 mm
WOMAC functional ability, difference from placebo [2, 10]: −3.5 mm
WOMAC Overall Scores, Baseline (LS Mean) [3, 6]: 65.0 mm
WOMAC Overall Scores, % of improvement from baseline [3, 7]: −33.1%
WOMAC Overall Scores, % of improvement from placebo [3, 7]: −2.9%
WOMAC Overall Scores, Changes from Baseline (LS Mean) [3, 7]: −21.5 mm
WOMAC Overall Scores, Different from placebo (LS Mean) [3, 7]: −3.1 mm
WOMAC Overall Scores, Week 12 (LS Mean) [3, 7]: 43.5 mm
WOMAC Overall Scores, % of improvement from baseline [3, 8]: −41.3%
WOMAC Overall Scores, % of improvement from placebo [3, 8]: −5.1%
WOMAC Overall Scores, Changes from Baseline (LS Mean) [3, 8]: −24.9 mm
WOMAC Overall Scores, Week 12 (LS Mean) [3, 8]: 35.4 mm
WOMAC Total, difference vs. Placebo [3, 9]: −3.6 mm
WOMAC overall, difference from placebo [3, 10]: −3.0 mm
